From patent US5834461A, “Tricyclic benzazepine vasopressin antagonists” (American Cyanamid Company, priority 1997, dated 1998)

How the values were obtained:
[1] = molecular target: T1, rat kidney medullary V2 receptors (Rattus norvegicus, UniProt Q00788); assay: Binding Assay to Rat Kidney Medullary V2 Receptors; conditions: rat kidney medullary V2
T1 construct: Medullary tissues from rat kidneys are dissected out; from tissue; host or cells: rat kidney medulla membranes
Outline: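 Competition binding: [3H]AVP at 0.8 nM, test compounds from 50% DMSO, and membranes from rat kidney medulla, left 120 min on the bench. Filtration then liquid scintillation counting measured bound ligand; 1.0 μM unlabeled ligand set non-specific binding.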

[2] = tested on: vasopressin V1; assay: Vasopressin V1 Antagonist Activity in Conscious Rats (vasopressin vasopressor response); format: in vivo, rat (spontaneously hypertensive rats); set-up: Average Change: unit not given here
Outline: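 Conscious rats had the ventral caudal tail artery cannulated into the lower abdominal aorta under local procaine anesthesia, plus a caudal vein cannula for intravenous dosing. Pulsatile blood pressure was recorded via a Statham P23Db transducer. Vasopressor responses to vasopressin injections were measured before and after compound dosing, with percent antagonism calculated relative to the pre-drug response taken as 100%.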

[3] = molecular target: vasopressin V1 receptor (rat liver plasma membranes) (Rattus norvegicus, UniProt P30560); assay: Binding Assay to Rat Hepatic V1 Receptors; conditions: rat hepatic V1
Chain of vasopressin V1 receptor (rat liver plasma membranes) (P30560 whole entry): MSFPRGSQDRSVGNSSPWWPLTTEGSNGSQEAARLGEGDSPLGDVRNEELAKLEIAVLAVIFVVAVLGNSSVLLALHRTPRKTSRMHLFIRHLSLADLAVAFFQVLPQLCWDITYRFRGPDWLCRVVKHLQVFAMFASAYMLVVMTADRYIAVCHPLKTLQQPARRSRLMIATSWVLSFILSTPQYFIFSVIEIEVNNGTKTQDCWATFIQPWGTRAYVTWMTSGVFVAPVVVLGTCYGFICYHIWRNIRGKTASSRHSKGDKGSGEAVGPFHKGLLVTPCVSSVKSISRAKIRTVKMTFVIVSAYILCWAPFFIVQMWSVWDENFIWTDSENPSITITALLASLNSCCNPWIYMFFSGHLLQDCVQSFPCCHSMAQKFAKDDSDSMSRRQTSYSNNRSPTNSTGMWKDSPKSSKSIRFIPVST

[4] = tested on: vasopressin V2; assay: Vasopressin V2 Antagonist Activity in Conscious Hydrated Rats (diuretic effect); format: in vivo, normal Sprague-Dawley rats; conditions: AVP 0.4 μg/kg i.p.
Experimental: Conscious hydrated rats are treated with compounds under study from 0.1 to 100 mg/kg orally or vehicle. Two to four rats are used for each compound. One hour later, arginine vasopressin (AVP, antidiuretic hormore, ADH) dissolved in peanut oil is administered at 0.4 μg/kg intraperitoneally. Two rats in each test would not receive arginine vasopressin but only the vehicle (peanut oil) to serve as water-loading control. Twenty minutes later each rat is given 30 mL/kg of deionized water orally by gavage and is placed individually in a metabolic cage equipped with a funnel and a graduated glass cylinder to collect urine for four hours. Urine volume is measured and osmolality analyzed by use of a Fiske One-Ten osmometer (Fiske Assoc., Norwood, Mass., USA). Urinary sodium, potassium, and chloride are analyzed by use of ion-specific electrodes in a Beckman E3 (Electrolyte 3) Analyzer. In the following results, […] and decreased osmolality relative to AVP-control indicates activity.

[5] = 10 mg/kg i.v., VAS 0.01 i.u./kg, 30 min
[6] = 10 mg/kg i.v., VAS 0.02 i.u./kg, 30 min
[7] = 20 mg/kg i.v., VAS 0.01 i.u./kg, 60 min
[8] = 20 mg/kg i.v., VAS 0.01 i.u./kg, 90 min
[9] = 20 mg/kg i.v., VAS 0.01 i.u./kg, 120 min
[10] = 20 mg/kg i.v., VAS 0.01 i.u./kg, 180 min
[11] = 20 mg/kg i.v., VAS 0.01 i.u./kg, 240 min
[12] = 20 mg/kg i.v., VAS 0.01 i.u./kg, 300 min
[13] = 20 mg/kg i.v., VAS 0.02 i.u./kg, 60 min
[14] = 20 mg/kg i.v., VAS 0.02 i.u./kg, 90 min
[15] = 20 mg/kg i.v., VAS 0.02 i.u./kg, 120 min
[16] = 20 mg/kg i.v., VAS 0.02 i.u./kg, 180 min
[17] = 20 mg/kg i.v., VAS 0.02 i.u./kg, 240 min
[18] = 20 mg/kg i.v., VAS 0.02 i.u./kg, 300 min
[19] = 10 mg/kg i.v., VAS 0.01 i.u./kg, 60 min
[20] = 10 mg/kg i.v., VAS 0.01 i.u./kg, 90 min
[21] = 10 mg/kg i.v., VAS 0.01 i.u./kg, 120 min
[22] = 10 mg/kg i.v., VAS 0.01 i.u./kg, 180 min
[23] = 10 mg/kg i.v., VAS 0.01 i.u./kg, 240 min
[24] = 10 mg/kg i.v., VAS 0.01 i.u./kg, 300 min
[25] = 10 mg/kg i.v., VAS 0.02 i.u./kg, 60 min
[26] = 10 mg/kg i.v., VAS 0.02 i.u./kg, 90 min
[27] = 10 mg/kg i.v., VAS 0.02 i.u./kg, 120 min
[28] = 10 mg/kg i.v., VAS 0.02 i.u./kg, 180 min
[29] = 10 mg/kg i.v., VAS 0.02 i.u./kg, 240 min
[30] = 10 mg/kg i.v., VAS 0.02 i.u./kg, 300 min

T1 sequence (Q00788 whole entry): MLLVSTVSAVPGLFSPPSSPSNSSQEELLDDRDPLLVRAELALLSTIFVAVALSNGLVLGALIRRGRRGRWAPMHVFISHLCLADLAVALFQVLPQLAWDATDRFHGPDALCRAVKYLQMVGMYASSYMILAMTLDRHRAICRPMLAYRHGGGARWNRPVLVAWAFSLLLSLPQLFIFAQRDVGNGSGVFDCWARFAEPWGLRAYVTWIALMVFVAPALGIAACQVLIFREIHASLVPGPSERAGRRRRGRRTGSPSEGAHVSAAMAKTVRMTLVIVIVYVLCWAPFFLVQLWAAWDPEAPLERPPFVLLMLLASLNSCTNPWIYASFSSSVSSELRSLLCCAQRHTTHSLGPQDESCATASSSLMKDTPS

Compound: Cc1cccc(NC(=O)c2ccc(C(=O)N3Cc4ccccc4Cc4ccccc43)cc2)c1C [Example 124, 4-[(6.11-Dihydro-5H-dibenz[b,e]azepin-5-yl)-carbonyl]-N-(2,3-dimethylphenyl)benzamide]
- IC50 [1]: 0.21 µM
- Average Change [2, 5]: 38.5
- Average Change [2, 6]: 43.5
- Inhibition [2, 6]: -23%
- Average Change [2, 7]: 4
- Inhibition [2, 7]: 88%
- Average Change [2, 8]: 12.5
- Inhibition [2, 8]: 62%
- Average Change [2, 9]: 12.5
- Inhibition [2, 9]: 62%
- Average Change [2, 10]: 21
- Inhibition [2, 10]: 35%
- Average Change [2, 11]: 18
- Inhibition [2, 11]: 45%
- Average Change [2, 12]: 20
- Inhibition [2, 12]: 38%
- Average Change [2, 13]: 17.5
- Inhibition [2, 13]: 51%
- Average Change [2, 14]: 18
- Inhibition [2, 14]: 49%
- Average Change [2, 15]: 9.5
- Inhibition [2, 15]: 45%
- Average Change [2, 16]: 21.5
- Inhibition [2, 16]: 39%
- Average Change [2, 17]: 24.5
- Inhibition [2, 17]: 31%
- Average Change [2, 18]: 33.5
- Inhibition [2, 18]: 6%
- IC50 [3]: 1.2 µM
- Osmolality ([4]; 10 mg/kg orally): 1172 mOsm/kg
- Urine Volume ([4]; 10 mg/kg orally): 5.5 ml/4 hrs.

Compound: O=C(Nc1ccc(C(=O)N2Cc3ccccc3Cc3ccccc32)cc1)c1c(Cl)cccc1Cl [Example 252, N-[4-[(6,11-Dihydro-5H-dibenz[b,e]azepin-5-yl)-carbonyl]phenyl]-2,6-dichlorobenzamide]
- IC50 [1]: 0.26 µM
- MAX % Inhibition ([2]; 30 mg/kg i.v.): 75%
- Time of max % inhibition ([2]; 30 mg/kg i.v.): 120 min
- IC50 [3]: 0.26 µM
- Osmolality ([4]; 10 mg/kg orally): 790 mOsm/kg
- Urine Volume ([4]; 10 mg/kg orally): 7.5 ml/4 hrs.

Compound: Cc1ccccc1NC(=O)c1ccc(C(=O)N2Cc3ccccc3Cc3ccccc32)cc1 [Example 123, 4-[(6,11-Dihydro-5H-dibenz[b,e]azepin-5-yl)-carbonyl]-N-(2-methylphenyl)benzamide]
- IC50 [1]: 0.19 µM
- Average Change [2, 5]: 17.5
- Inhibition [2, 5]: 0%
- Average Change [2, 6]: 20
- Inhibition [2, 6]: 39%
- Average Change [2, 7]: 6
- Inhibition [2, 7]: 66%
- Average Change [2, 8]: 6
- Inhibition [2, 8]: 66%
- Average Change [2, 9]: 5
- Inhibition [2, 9]: 71%
- Average Change [2, 10]: 4
- Inhibition [2, 10]: 77%
- Average Change [2, 11]: 8
- Inhibition [2, 11]: 54%
- Average Change [2, 12]: 8
- Inhibition [2, 12]: 54%
- Average Change [2, 13]: 6
- Inhibition [2, 13]: 82%
- Average Change [2, 14]: 7
- Inhibition [2, 14]: 79%
- Average Change [2, 15]: 4.5
- Inhibition [2, 15]: 86%
- Average Change [2, 16]: 6.5
- Inhibition [2, 16]: 80%
- Average Change [2, 17]: 6.5
- Inhibition [2, 17]: 80%
- Average Change [2, 18]: 8
- Inhibition [2, 18]: 76%
- IC50 [3]: 0.043 µM
- Osmolality ([4]; 10 mg/kg orally): 1125 mOsm/kg
- Urine Volume ([4]; 10 mg/kg orally): 5.8 ml/4 hrs.

Compound: Cc1ccccc1C(=O)Nc1ccc(C(=O)N2Cc3ccccc3Cc3cc(Cl)ccc32)cc1 [Example 136]
- IC50 [1]: 0.027 µM
- MAX % Inhibition ([2]; 10 mg/kg i.v.): 81%
- Time of max % inhibition ([2]; 10 mg/kg i.v.): 30 min
- IC50 [3]: 0.016 µM
- Osmolality ([4]; 30 mg/kg orally): 306 mOsm/kg
- Urine Volume ([4]; 30 mg/kg orally): 19 ml/4 hrs.

Compound: Cc1ccccc1C(=O)N(C)c1ccc(C(=O)N2Cc3ccccc3Cc3ccccc32)cc1 [Example 167, N-[4-[ (6,11-Dihydro-5H-dibenz[b,e]azepin-5-yl)carbonyl]phenyl]-N-methyl-2-methylbenzamide]
- IC50 [1]: 0.43 µM
- MAX % Inhibition ([2]; 10 mg/kg i.v.): 70%
- Time of max % inhibition ([2]; 10 mg/kg i.v.): 180 min
- IC50 [3]: 0.51 µM
- Osmolality ([4]; 30 mg/kg orally): 1544 mOsm/kg
- Urine Volume ([4]; 30 mg/kg orally): 2 ml/4 hrs.

Compound: Cc1cccc(C(=O)Nc2ccc(C(=O)N3Cc4ccccc4Cc4cc(Cl)ccc43)cc2)c1C [Example 138, N-[4-[(2-Chloro-6,11-dihydro-5H-dibenz[b,e]azepin-5-yl)carbonyl]phenyl]2,3-dimethylbenzamide]
- IC50 [1]: 0.051 µM
- MAX % Inhibition ([2]; 10 mg/kg i.v.): 88%
- Time of max % inhibition ([2]; 10 mg/kg i.v.): 60 min
- IC50 [3]: 0.046 µM
- Osmolality ([4]; 30 mg/kg orally): 380 mOsm/kg
- Urine Volume ([4]; 30 mg/kg orally): 13.8 ml/4 hrs.

Compound: Cc1ccccc1C(=O)Nc1ccc(C(=O)N2Cc3ccccc3C(C)c3ccccc32)cc1 (centres unmarked) [Example 22]
- IC50 [1]: 0.14 µM
- Average Change [2, 5]: 8.5
- Inhibition [2, 5]: 60%
- Average Change [2, 19]: 11
- Inhibition [2, 19]: 49%
- Average Change [2, 20]: 14
- Inhibition [2, 20]: 35%
- Average Change [2, 21]: 17.5
- Inhibition [2, 21]: 19%
- Average Change [2, 22]: 20
- Inhibition [2, 22]: 7%
- Average Change [2, 23]: 28
- Inhibition [2, 23]: -30%
- Average Change [2, 24]: 30
- Inhibition [2, 24]: -40%
- Average Change [2, 6]: 18.5
- Inhibition [2, 6]: 56%
- Average Change [2, 25]: 25
- Inhibition [2, 25]: 40%
- Average Change [2, 26]: 13
- Inhibition [2, 26]: 69%
- Average Change [2, 27]: 30
- Inhibition [2, 27]: 29%
- Average Change [2, 28]: 36
- Inhibition [2, 28]: 14%
- Average Change [2, 29]: 48
- Inhibition [2, 29]: -14%
- Average Change [2, 30]: 52.5
- Inhibition [2, 30]: -25%
- IC50 [3]: 0.32 µM
- Osmolality ([4]; 30 mg/kg orally): 738 mOsm/kg
- Urine Volume ([4]; 30 mg/kg orally): 10.2 ml/4 hrs.
